Read-outs that look alike come from different tables or passages of the source.
Experiments:
ERα+/PR− tumors = conditions: postmenopausal women, follow-up 6 years, compared to patients treated with tamoxifen; cited from earlier work
[1] = test system: ERα positive breast cancer; conditions: cited from earlier work
[2] = test system: stage II primary breast carcinoma; assay: Controlled, randomized adjuvant tamoxifen trial; Kaplan-Meier survival analysis by CRABP2 level on breast cancer TMA; assay type: in vivo, human
Excerpt: Median age at diagnosis was 45 (25-57) years. Median follow-up was 13.9 years and less than 2% of the patients had received adjuvant chemotherapy. The study design is described in detail elsewhere (Rydén et al, Eur J Cancer, 2005, 41(2): 256-64). Ethical permission was obtained from the Local Ethics Committees at Lund and Linköping Universities.
All cases had been histopathologically re-evaluated on hematoxylin and eosin stained slides. TMA:s were then constructed by sampling 2×0.6 mm cores per case from areas representative of invasive cancer. The TMA:s were prepared and automated immunohistochemistry was performed as described in section 3 above, using the CRABP2 antibody prepared as described in section 2 above.
As with “staining intensity” in Examples, Section 3 above, ni was subjectively evaluated in accordance to standards used in clinical histo-pathological diagnostics and outcome was classified as: absent (O)=no immunoreactivity, weak (1)=faint immunoreactivity, moderate (2)=medium immunoreactivity or strong (3)=distinct and strong immunoreactivity. Further, as with “the fraction of stained cells” in Examples, Section 3 above, nf was classified as <2%, 2-25%, 26-75% or >75%. Two categories were defined: “CRABP2 low” corresponding to nf<=25% and ni=0-1; and “CRABP2 high” corresponding to nf>25% and/or ni=2-3 (FIG. 1). This classification of samples was used for recurrence free survival (RFS) or breast cancer specific survival ([…]) analysis according to the Kaplan-Meier estimator, and the log-rank test was used to compare survival in different strata. All statistical tests were two-sided, and p-values of <[…] were considered significant. All calculations were made with the statistical package SPSS 12.0 (SPSS Inc. Illinois, USA).

breast cancer [3] = conditions: five years adjuvant tamoxifen after primary surgery; ER positive tumors, irrespective of lymph node status; cited from earlier work
breast cancer [4] = conditions: cited from earlier work
ERα+/PR+ tumors = conditions: cited from earlier work

SMILES: CC(C)(C#N)c1cc(Cn2cncn2)cc(C(C)(C)C#N)c1 [anastrozole]
- recurrence rate (ERα+/PR− tumors): halved

SMILES: CC/C(=C(\c1ccccc1)c1ccc(OCCN(C)C)cc1)c1ccccc1 [tamoxifen]
- ERα positive patients that do not respond to treatment [1]: 30-40%
- recurrence free survival (RFS) ([2]; CRABP2 high tumors, irrespective of ER status, adjuvant tamoxifen 2 years vs control (FIG. 3B)): improved survival
- recurrence free survival (RFS) ([2]; CRABP2 low tumors, irrespective of ER status, tamoxifen vs control (FIG. 3A)): no impact on survival
- recurrence free survival (RFS) ([2]; ERα+ and CRABP2 high, tamoxifen vs control (FIG. 4B)): a trend towards a positive response
- recurrence free survival (RFS) ([2]; ERα+ and CRABP2 low, tamoxifen vs control (FIG. 4A)): a trend towards a positive response
- recurrence free survival (RFS) ([2]; ERα− and CRABP2 high, tamoxifen vs control (FIG. 5B)): positively affected
- breast cancer specific survival (BCSS) ([2]; ERα− and CRABP2 high, tamoxifen vs control (FIG. 6B)): better trend
- recurrence free survival (RFS) ([2]; ERα− and CRABP2 low, tamoxifen vs control (FIG. 5A)): negatively affected
- breast cancer specific survival (BCSS) ([2]; ERα− and CRABP2 low, tamoxifen vs control (FIG. 6A)): worse trend
- recurrence free survival (RFS) ([2]; ERα− and PR−, CRABP2 high, tamoxifen vs control (FIG. 11b)): better trend
- breast cancer specific survival (BCSS) ([2]; ERα− and PR−, CRABP2 high, tamoxifen vs control (FIG. 12b)): better trend
- recurrence free survival (RFS) ([2]; ERα− and PR−, CRABP2 low, tamoxifen vs control (FIG. 11a)): worse trend
- breast cancer specific survival (BCSS) ([2]; ERα− and PR−, CRABP2 low, tamoxifen vs control (FIG. 12a)): worse trend
- recurrence free survival (RFS) ([2]; ERα− and/or PR−, CRABP2 high, tamoxifen vs control (FIG. 9b)): better trend
- breast cancer specific survival (BCSS) ([2]; ERα− and/or PR−, CRABP2 high, tamoxifen vs control (FIG. 10b)): better trend
- recurrence free survival (RFS) ([2]; ERα− and/or PR−, CRABP2 low, tamoxifen vs control (FIG. 9a)): worse trend
- breast cancer specific survival (BCSS) ([2]; ERα− and/or PR−, CRABP2 low, tamoxifen vs control (FIG. 10a)): worse trend
- recurrence free survival (RFS) ([2]; PR− and CRABP2 high, tamoxifen vs control (FIG. 7B)): better survival probability trend
- breast cancer specific survival (BCSS) ([2]; PR− and CRABP2 high, tamoxifen vs control (FIG. 8B)): better trend
- recurrence free survival (RFS) ([2]; PR− and CRABP2 low, tamoxifen vs control (FIG. 7A)): negatively affected
- breast cancer specific survival (BCSS) ([2]; PR− and CRABP2 low, tamoxifen vs control (FIG. 8A)): worse trend
- breast cancer mortality (breast cancer [3]): reduces the breast cancer mortality
- recurrence-free and overall survival (breast cancer [4]; high PR level, >75% nuclear fraction, irrespectively of ERα status): significantly correlated with an increased recurrence-free and overall survival
- recurrence-free and overall survival (breast cancer [4]; lower PR level, <75%): no positive effect
- disease free survival (ERα+/PR+ tumors; older patients (≧60 years), ERα+/PR+ tumors, tamoxifen vs no adjuvant treatment): significantly longer disease free survival
- disease free survival (ERα+/PR+ tumors; younger patients (<60 years)): no significant effect

From patent US20110003854A1, “BREAST CANCER TREATMENT AND TREATMENT PREDICTION” (priority 2007, published 2011)
